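Here, GI50 denotes the concentration required for 50% inhibition of growth. Definition used: TGI = concentration required for complete inhibition of growth.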
Legend:
Experiment in all cases: growth of human tumour cells (NCI), 384-well format; in the data active = GI50 below about 0.43 µM; inactive = the rest
NCI-H522 lung = tested on: NCI-H522 lung
A498 renal = tested on: A498 renal
MDA-MB-231 breast = tested on: MDA-MB-231 breast
NCI-H322M lung = tested on: NCI-H322M lung
UACC-257 melanoma = tested on: UACC-257 melanoma
HCT-116 colon = tested on: HCT-116 colon
RPMI-8226 leukemia = tested on: RPMI-8226 leukemia
MDA-MB-468 breast = tested on: MDA-MB-468 breast
NCI-H226 lung = tested on: NCI-H226 lung
OVCAR-4 ovarian = tested on: OVCAR-4 ovarian
SF-268 CNS = tested on: SF-268 CNS
SW-620 colon = tested on: SW-620 colon
SN12C renal = tested on: SN12C renal
A549 NSCLC = tested on: A549 NSCLC
BT-549 breast = tested on: BT-549 breast
SR leukemia = tested on: SR leukemia
SK-MEL-5 melanoma = tested on: SK-MEL-5 melanoma
SK-MEL-28 melanoma = tested on: SK-MEL-28 melanoma
MCF7 breast = tested on: MCF7 breast
HOP-62 NSCLC = tested on: HOP-62 NSCLC
HOP-92 NSCLC = tested on: HOP-92 NSCLC
RXF 393 renal = tested on: RXF 393 renal
K-562 leukemia = tested on: K-562 leukemia
HL-60(TB) leukemia = tested on: HL-60(TB) leukemia
HS 578T breast = tested on: HS 578T breast
CCRF-CEM leukemia = tested on: CCRF-CEM leukemia
786-0 renal = tested on: 786-0 renal
IGROV1 ovarian = tested on: IGROV1 ovarian
SK-OV-3 ovarian = tested on: SK-OV-3 ovarian
LOX IMVI melanoma = tested on: LOX IMVI melanoma
HT29 colon = tested on: HT29 colon
MDA-MB-435 melanoma = tested on: MDA-MB-435 melanoma
ACHN renal = tested on: ACHN renal
HCT-15 colon = tested on: HCT-15 colon
MOLT-4 leukemia = tested on: MOLT-4 leukemia
HCC-2998 colon = tested on: HCC-2998 colon
CAKI-1 renal = tested on: CAKI-1 renal
TK-10 renal = tested on: TK-10 renal
EKVX NSCLC = tested on: EKVX NSCLC
M14 melanoma = tested on: M14 melanoma
COLO 205 colon = tested on: COLO 205 colon
OVCAR-3 ovarian = tested on: OVCAR-3 ovarian
OVCAR-5 ovarian = tested on: OVCAR-5 ovarian
OVCAR-8 ovarian = tested on: OVCAR-8 ovarian
SF-539 CNS = tested on: SF-539 CNS
SF-295 CNS = tested on: SF-295 CNS
NCI-H460 NSCLC = tested on: NCI-H460 NSCLC
NCI-H23 lung = tested on: NCI-H23 lung
NCI/ADR-RES ovarian = tested on: NCI/ADR-RES ovarian
UO-31 renal = tested on: UO-31 renal
MALME-3M melanoma = tested on: MALME-3M melanoma
SNB-75 CNS = tested on: SNB-75 CNS
SNB-19 CNS = tested on: SNB-19 CNS
KM12 colon = tested on: KM12 colon
DU-145 prostate = tested on: DU-145 prostate
U251 glioblastoma = tested on: U251 glioblastoma
PC-3 prostate = tested on: PC-3 prostate
T-47D breast = tested on: T-47D breast

COC[C@H]1OC(=O)c2coc3c2[C@@]1(C)C1=C(C3=O)[C@@H]2CCC(=O)[C@@]2(C)C[C@H]1OC(C)=O
9.89 µM: TGI (RPMI-8226 leukemia)
30.6 µM: TGI (CCRF-CEM leukemia)
13.6 µM: TGI (MOLT-4 leukemia)
44.6 µM: TGI (HCC-2998 colon)
12.8 µM: TGI (HS 578T breast)
42.4 µM: TGI (MALME-3M melanoma)
67.9 µM: TGI (SF-268 CNS)
2.74 µM: TGI (HL-60(TB) leukemia)
4.28 µM: TGI (SR leukemia)
54.3 µM: TGI (A498 renal)
active: GI50 (RXF 393 renal) 0.281 µM
32.1 µM: TGI (OVCAR-3 ovarian)
7.84 µM: TGI (MDA-MB-468 breast)
42.8 µM: TGI (BT-549 breast)
> 100 µM: TGI (NCI-H522 lung) | TGI (MDA-MB-231 breast) | TGI (NCI-H322M lung) | TGI (UACC-257 melanoma) | TGI (HCT-116 colon) | TGI (NCI-H226 lung) | TGI (OVCAR-4 ovarian) | TGI (SW-620 colon) | TGI (SN12C renal) | TGI (A549 NSCLC) | TGI (SK-MEL-28 melanoma) | TGI (MCF7 breast) | TGI (HOP-62 NSCLC) | TGI (HOP-92 NSCLC) | TGI (K-562 leukemia) | TGI (786-0 renal) | TGI (SK-OV-3 ovarian) | TGI (LOX IMVI melanoma) | TGI (HT29 colon) | TGI (MDA-MB-435 melanoma) | TGI (ACHN renal) | TGI (HCT-15 colon) | TGI (CAKI-1 renal) | TGI (TK-10 renal) | TGI (EKVX NSCLC) | TGI (M14 melanoma) | TGI (COLO 205 colon) | TGI (OVCAR-5 ovarian) | TGI (OVCAR-8 ovarian) | TGI (SF-539 CNS) | TGI (SF-295 CNS) | TGI (NCI-H460 NSCLC) | TGI (NCI-H23 lung) | TGI (NCI/ADR-RES ovarian) | TGI (UO-31 renal) | TGI (SNB-19 CNS) | TGI (KM12 colon) | TGI (DU-145 prostate) | TGI (U251 glioblastoma) | TGI (PC-3 prostate)
27.9 µM: TGI (SK-MEL-5 melanoma)
inactive: GI50 (NCI-H522 lung) 20.3 µM | GI50 (A498 renal) 4.52 µM | GI50 (MDA-MB-231 breast) 17.6 µM | GI50 (NCI-H322M lung) 6.91 µM | GI50 (UACC-257 melanoma) 13.6 µM | GI50 (HCT-116 colon) 16.8 µM | GI50 (RPMI-8226 leukemia) 2.39 µM | GI50 (MDA-MB-468 breast) 1.46 µM | GI50 (NCI-H226 lung) 12.5 µM | GI50 (OVCAR-4 ovarian) 2.36 µM | GI50 (SF-268 CNS) 4.4 µM | GI50 (SW-620 colon) 28.8 µM | GI50 (SN12C renal) 11 µM | GI50 (A549 NSCLC) 7.24 µM | GI50 (BT-549 breast) 3.31 µM | GI50 (SR leukemia) 1.28 µM | GI50 (SK-MEL-5 melanoma) 4.21 µM | GI50 (SK-MEL-28 melanoma) 9.73 µM | GI50 (MCF7 breast) 1.34 µM | GI50 (HOP-62 NSCLC) 10.9 µM | GI50 (HOP-92 NSCLC) 6.12 µM | GI50 (K-562 leukemia) 71.9 µM | GI50 (HL-60(TB) leukemia) 0.975 µM | GI50 (HS 578T breast) 1.6 µM | GI50 (CCRF-CEM leukemia) 7.05 µM | GI50 ([…]-0 renal) 26.3 µM | GI50 (IGROV1 ovarian) 1.18 µM | GI50 (SK-OV-3 ovarian) 8.24 µM | GI50 (LOX IMVI melanoma) 21.1 µM | GI50 (HT29 colon) 7.88 µM | GI50 (MDA-MB-435 melanoma) 24.7 µM | GI50 (ACHN renal) 7.99 µM | GI50 (HCT-15 colon) 11.4 µM | GI50 (MOLT-4 leukemia) 2.3 µM | GI50 (HCC-2998 colon) 3.91 µM | GI50 (CAKI-1 renal) 7.96 µM | GI50 (TK-10 renal) 12 µM | GI50 (EKVX NSCLC) 5.6 µM | GI50 (M14 melanoma) 18.2 µM | GI50 (COLO 205 colon) 26.7 µM | GI50 (OVCAR-3 ovarian) 2.74 µM | GI50 (OVCAR-5 ovarian) 15.4 µM | GI50 (OVCAR-8 ovarian) 14.7 µM | GI50 (SF-539 CNS) 22.5 µM | GI50 (SF-295 CNS) 7.25 µM | GI50 (NCI-H460 NSCLC) 7.17 µM | GI50 (NCI-H23 lung) 22.1 µM | GI50 (NCI/ADR-RES ovarian) 25 µM | GI50 (UO-31 renal) 3.33 µM | GI50 (MALME-3M melanoma) 3.9 µM | GI50 (SNB-75 CNS) 1.34 µM | GI50 (SNB-19 CNS) 50.2 µM | GI50 (KM12 colon) 15.4 µM | GI50 (DU-145 prostate) 25.2 µM | GI50 (U251 glioblastoma) 67.4 µM | GI50 (PC-3 prostate) 1.44 µM | GI50 (T-47D breast) 4.32 µM
1.82 µM: TGI (RXF 393 renal)
11.3 µM: TGI (IGROV1 ovarian)
11.7 µM: TGI (SNB-75 CNS)
60.3 µM: TGI (T-47D breast)

— PubChem BioAssay (NCI)
